Results published in US20100144845A1, “OLIGONUCLEOTIDE SYSTEMS FOR TARGETED INTRACELLULAR DELIVERY” (Massachusetts Institute of Technology, priority 2006, published 2010).

Assays:
[1] = tested on: PC3 cells; assay: MTT cell viability assay; format: cell-based; conditions: drug concentration 5 μM, Dox to RNA 1:1, treated approximately one hour, total of 72 hours
Procedure: (§1) Doxorubicin (Dox), a cytotoxic drug commonly used in chemotherapy that can dock into double-stranded portions of nucleic acids because of the stacking capacity of its many-ringed structure, was “loaded” onto oligonucleotides at a molar ratio of 1:1, Dox to RNA, e.g., as described in Bagalkot, V. et al., Angewandte Chemie (International ed 45, 8149-8152 (2006) (the drug concentration was 5 μM). MTT assays were performed essentially as previously described, e.g., in Akaishi, S. et al., The Tohoku Journal of Experimental Medicine 175, 29-42 (1995). Briefly, 100 μl aliquots of LNCaP or PC3 cells (5×10^3 cells/mL) were seeded in 24-well plates (n=5), allowed to grow overnight and treated, for approximately one hour, with 100 μL of either a) nothing; b) Dox alone; c) Dox conjugated with the initial library; d) Dox conjugated to the Rd-12 population of the LNCaP selection; or e) Dox conjugated to the Rd-12 population of the PC3 selection; then washed and further incubated, in fresh media, for a total of 72 hours. The cells were then washed twice with EBSS, treated with 50 μL MTT solution for 4 hours, and lysed with MTT-detergent overnight. The absorbance was measured the following day using micro-plate reader at 570 nm.

[2] = tested on: LNCaP cells; assay: MTT cell viability assay; format: cell-based; conditions: drug concentration 5 μM, Dox to RNA 1:1, treated approximately one hour, total of 72 hours
Procedure: as §1

COc1cccc2c1C(=O)c1c(O)c3c(c(O)c1C2=O)C[C@@](O)(C(=O)CO)C[C@@H]3O[C@H]1C[C@H](N)[C@H](O)[C@H](C)O1 [Dox, Doxorubicin]
effectiveness (cytotoxicity) in MTT assay [1]: equipotent against PC3 and LNCaP cells | effectiveness (cytotoxicity) in MTT assay [2]: equipotent against PC3 and LNCaP cells
